Measurements: patent publication US7037922B1, “Aryl fused 2,4-disubstituted pyridines: NK3 receptor ligands” (Neurogen Corporation, priority 2000, dated 2006)

molecular target: T1, NK-3 receptor (Homo sapiens, UniProt P29371); test: NK3 receptor binding assay (displacement of 125I-methylPhe7-neurokinin B); settings: membranes of Chinese hamster ovary cells expressing cloned human NK-3 receptor; 0.15 nM 125I-methylPhe7-neurokinin B; 2 hours at 4° C.
T1 construct: expressed in transfected cells; total cellular membranes used
T1 sequence (P29371 1-465): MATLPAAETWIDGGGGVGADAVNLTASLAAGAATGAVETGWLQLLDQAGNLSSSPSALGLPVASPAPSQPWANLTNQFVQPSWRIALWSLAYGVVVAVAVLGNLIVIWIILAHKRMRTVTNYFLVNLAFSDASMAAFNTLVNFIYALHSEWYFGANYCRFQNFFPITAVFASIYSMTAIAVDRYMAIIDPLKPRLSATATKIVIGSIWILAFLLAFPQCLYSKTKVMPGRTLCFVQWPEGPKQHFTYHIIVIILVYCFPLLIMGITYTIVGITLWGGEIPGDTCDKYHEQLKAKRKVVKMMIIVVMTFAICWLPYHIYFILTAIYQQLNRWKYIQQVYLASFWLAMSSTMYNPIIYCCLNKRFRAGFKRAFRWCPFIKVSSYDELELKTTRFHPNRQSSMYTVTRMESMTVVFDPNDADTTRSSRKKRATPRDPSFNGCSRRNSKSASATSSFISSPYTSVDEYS
Procedure: The following assay is a standard assay of NK3 receptor binding, which is used to determine the NK-3 receptor binding affinity of compounds.
Assays are performed as described in Krause et al (Proc. Natl. Acad. Sci. USA 94: 310–315, 1997). The NK-3 receptor complementary DNA was cloned from human hypothalamic RNA using standard procedures. The receptor cDNA was inserted into the expression vector pM^2 to transfect the mammalian Chinese hamster ovary cell line, and a stably expressing clonal cell line was isolated, characterized and used for the current experiments. Cells are grown in minimal essential medium alpha containing 10% fetal bovine serum and 0.8 mg G418 per ml. Cells were liberated from cell culture plates with No-zyme (PBS base, JRH Biosciences), and harvested by low speed centrifugation. The cell pellet was homogenized in TBS (0.05 m TrisHCl, 120 mM NaCl, pH 7.4) with a Polytron homogenizer at setting 5 for 20 seconds, and total cellular membranes were isolated by centrifugation at 47,500×g for 10 minutes. The membrane pellet was resuspended by homogenization with the Polytron as above, and the membranes were isolated by centrifugation at 47,500×g for 10 minutes. This final membrane pellet was resuspended in TBS at a protein concentration of 350 μg/ml.
Receptor binding assays contain a total volume of 200 μl containing 50 μg membrane protein, 0.15 nM ^125I-methylPhe^7-neurokinin B, drug or blocker in TBS containing 1.0 mg/ml bovine serum albumen, 0.2 mg/ml bacitracin, 20 ug/ml leupeptin and 20 μg/ml chymostatin. Incubations are carried out for 2 hours at 4° C., and the membrane proteins are harvested by passing the incubation mixture by rapid filtration over presoaked GF/B filters to separate bound from free ligand. […] After filtration of the incubation mixture, filters are rinsed 4 times with ice-cold TBS containing 0.01% sodium dodecyl sulfate and counted in a β-plate scintillation counter. […] Data are collected in duplicate determinations, averaged, and the percent inhibition of total specific binding is calculated. […]

IC50 [nM]	Compound
100	CC[C@H](NC(=O)c1cc(-c2ccccc2)nc2ncccc12)c1ccccc1 [Compound 3]
80	CC[C@H](NC(=O)c1cc(-c2ccccc2)nc2ccsc12)c1ccccc1 [Compound 2]
50	CC[C@H](NC(=O)c1cc(-c2ccccc2)nc2ccncc12)c1ccccc1 [Compound 1]
